Source: patent publication US10519423B1, “High efficiency reprogramming of fibroblasts into cardiomyocytes” (The Regents of the University of Colorado, a body corporate, priority 2015, dated 2019)

Columns and labels:
MEFs [1] = experiment: Counting of spontaneously beating cells in infected MEFs; format: cell-based, mouse; conditions: for spontaneously beating cells induced by GHMT2m in the presence of inhibitor: GHMT2m-MEFs treated 7 days, counted at day 9, Thiazovivin 2.5 μM, SR-3677 5 μM, GW788388 3 μM, LY-364947 1.5 μM, SD-208 1 μM
Experimental: (§1) Fibroblasts were plated on tissue culture dishes pre-coated with SureCoat (Cellutron) at a density of ˜40 cells/mm^2 before transduction. The fibroblast growth medium was replaced with freshly made viral mixture containing polybrene (Sigma). Twenty-four hours later, fibroblasts were infected again with viral mixture containing polybrene. Twenty fours later, the viral medium was replaced with induction medium, composed of DMEM/199 (4:1) (Gibco), 10% FBS (Gemini), 5% horse serum(Gemini), antibiotics (Gibco), 1× non-essential amino acids (Gibco), 1× essential amino acids (Gibco), 1× B-27 (Gibco), 1× insulin-selenium-transferin (Gibco), 1× vitamin mixture (Gibco), and 1× sodium pyruvate (Gibco). Medium was changed every two-three days until cells were examined.
Cells in 60 mm dishes were examined under an EVOS® FL Color imaging system (Life Technologies) at 25° C. Beating cells were counted at a field with an area of 0.89 mm^2. Ten to fifteen fields in each dish were randomly chosen.

rats following MI = conditions: cited from earlier work
iCMs = experiment: Spontaneous calcium transients in Fura-2 AM-loaded iCMs; format: cell-based, mouse; design: dose or concentration left out as unconfirmed; conditions: iCMs on days 10-12, isoproterenol
From the text: To determine whether iCMs were developing functional excitation-contraction (EC) coupling, we imaged spontaneous calcium transients from Fura-2 AM-loaded iCMs. Spontaneous calcium transients were detected in spontaneously beating cells on days 10-12 (FIGS. 68-71). […] To determine whether iCMs are able to appropriately respond to hormone stimulation, a critical function of normal cardiomyocytes, we measured calcium transients in response to the b-adrenergic agonist isoproterenol (Iso).

MEFs [2] = experiment: qPCR of cardiac genes in reprogramming MEFs; format: cell-based, mouse
Experimental: (§2) Cells were harvested in TRizol reagent (Ambion) for RNA isolation. RNA was extracted with the RNeasy® Plus Universal Mini Kit (Qiagen). RT-PCR was performed using the Superscript III first-strand synthesis system (Invitrogen). qPCR was performed using the SYBR® Green PCR master mix (Applied Biosystems) or StepOne™ Real-Time PCR Systems (Applied Biosystems). Primers are listed in Supplementary Table 1. Ryr2 (Mm00465877_m1) and Myh7 (Mm01319006_91) are Taqman probes (Life technologies).

MEFs [3] = experiment: Pro-fibrotic marker expression in infected MEFs (qPCR, Western blot, αSMA stress fiber immunostaining); format: cell-based, mouse
Experimental: as §2
Samples were placed on ice and washed with ice-cold DPBS (Gibco) twice, then ice-cold lysis buffer (150 mM NaCl, 50 mM Tris-Cl pH7.4, 1 mM EDTA, 1% Triton, Complete mini tablet (Roche), 1 mM PMSF freshly added before use) was added to the cells. Cells were scraped and transferred to a pre-chilled 1.5 Eppendorf tube and frozen in liquid N2. Before used, the lysate was thawed on ice. The lysate was passed carefully through a 25 g needle for 5 times and then centrifuge at 14,000 rpm for 15 minutes at 4° C. The supernatant was transferred to a new 1.5 ml tube. The protein concentration was measured and 20 ug of lysate for each sample was loaded to SDSPAGE. Proteins were then transferred to PVDF. The PDVF membrane was blocked in 2.5% BSA in 1×TBST for 30 mins at room temperature (RT). The primary antibody was added in blocking buffer for 60 mins at RT. Wash in 1×TBST (20 mM Tris-Cl, pH7.4; 150 mM NaCl; 0.1% Tween20) three times at RT, each for 15 mins. The Secondary antibody was added in blocking buffer for 45 mins at RT. The membrane was washed in 1 XTBST for 15 mins, 1×TBST for 5 mins, then TBS (10 mM Tris-Cl pH8, 150 mM NaCl) for 5 mins. The membrane was resolved with Super Signal® West Pico (34080) or Femto (34095) substrate (Thermo Scientfic). The primary antibodies include: Snail (Cell Signaling, 3879S, 1:1000), Slug (Cell Signaling, 9585S, 1:1000), P-Smad2 (Cell Signaling, 23108P, 1:1000), Smad2 (Cell Signaling, 5339, 1:1000), αSMA (Santa Cruz, SC-32251, 1:10000), cTn1 (Phospho Solutions, 2010-TNI, 1:1000), cTnT (Sigma, T6277, 1:1000), and GAPDH (Ambion, AM4300). The secondary antibodies include: Goat Anti-Mouse IgG (H+L) (Southern Biotech, 1031-05, 1:2000). Goat Anti-Rabbit IgG (Life Technologies, 65-6120, 1:2000). For separation of α- and β-myosin heavy chain, samples were run by modified 6% SDS-PAGE (separating acrylamide/bis ratio 1:100; resolving gel buffer pH 9.0; running gel buffer pH 8.2; β-mercaptoethanol 600 μl/l inner gel buffer). Gels were run overnight at 4° C. and stained with BioSafe Coomassie Blue protein stain.
(§3) Cells were fixed in 2% PFA for 15 min on ice then washed with DPBS (Gibco) three times at RT. The cells were permeabilized in 0.5% Triton X-100 (made in PBS) for 20 min at RT. After washing the cells with DPBS (Gibco), cells were incubated with the primary antibody against α-actinin (Sigma A7811, 1:300), Connexin 43 (Sigma, C6219, 1:500), Troponin T (Thermo Scientific MS-245-P, 1:500), α-SMA (Santa Cruz Biotechnology, SC-32251, 1:800), Myl2 (Proteintech, 10906-1-AP, 1:200), or Myl7 (Proteintech, 17283-1-AP, 1:200) in 10% FBS(Gemini) in DPBS for 1 hour at RT. Cells were wash with DPBS three times, 5 min each. Cell were incubated with the secondary antibody (Alexa Fluor 555 Molecular Probes A21422, 1:1000) and Hoechest (Molecular Probes 33342, 1:5000) for 30 mins at RT.

MEFs [4] = experiment: Intracellular staining for flow cytometry (cTnT, Myc) in retrovirus-infected MEFs; format: cell-based, mouse; conditions: GHMT-infected MEFs, day 7; alone or treated with TGF-β1 (10 ng/ml) or A83-01 (0.5 μM, day 3 to day 7)
Experimental: C57BL6 pregnant mice at E13 were order from Charles River's laboratory. Embryos at E14.5 were harvested and their internal organs and head were removed. The body below the liver was minced using blade to fine pieces. Minced embryos were incubated with 2 ml of 0.25% trypsinIl mM EDTA, Phenol Red (Gibco) for 40 mins at 37° C. with 5% CO2. Cells were suspended in 25 ml of growth medium (DMEM/Hi glucose (Hyclone) 10% FBS (Gemini), 1.1% Penicillin-Streptomycin (Gibco) and 1.1% GlutaMAX supplement (Gibco)) and then plated on a 15 cm dish. In 24 hours, the media was aspirated and new 25 ml of growth medium was added. In 72 hours, MEFs were harvested and stored for future use.
as §1
Adherent fibroblasts were washed with DPBS (Gibco). Cells were detached from culture dish by treatment with 0.25% Trypsin/EDTA (Gibco) for 3 min at 37° C. Cells were then washed with 4 ml of 5% FBS (Gemini) in DPBS filtered through a cell strainer and centrifuge at 1200 rpm×6 mins. Cells were washed with 500 ul of 1% BSA in DPBS. Cells were fixed with BD Cytofix/Cytoperm™ solution in 0.2 ml/1 million cells in 1.5 ml eppendorf tube for 20 min on ice. Cells were washed with 1 ml of BD perm/wash buffer and Centrifuged for 6 min at 1200 rpm. The supernatant was discarded; cells were washed again with 1 ml of BD Perm/wash buffer and left overnight at 4° C. The next day, Cells were centrifuged for 6 min at 1200 rpm, the supernatant discarded and 100 μl of Blocking buffer made with 5% goat, donkey serum (Sigma: G9023 and D9663) in Perm/wash buffer was added to the cells and incubated for 30 min at RT. A primary antibody: Mouse Troponin T (cTnT) antibody (Thermo Scientific, ms-295-p, 1:200), mouse anti-C-Myc antibody (BD Pharmingen, 551102, 1:200) in 100 μl BD Perm/Wash buffer was added to the cells and incubated for 1 hr at RT. One ml cold BD Perm/wash buffer was added to the cells and centrifuged for 6 min at 1200 rpm. […] Cells were re-suspended in 300 ul of 1% BSA/DPBS and then analyzed using FACS Caliber (BD Sciences) and FlowJo software.

MEFs [5] = experiment: Immunocytochemistry for cTnT and α-actinin in infected MEFs; format: cell-based, mouse
Experimental: as §1, §3

[6] = system: mice following ischemia/reperfusion injury; conditions: cited from earlier work
[7] = GFP-, GHMT- and GHMT2m-infected cultures, day 7

## O=C(NC1CCOCC1)c1ccc(-c2cc(-c3c[nH]nc3-c3ccccn3)ccn2)cc1 [GW788388]
MEFs [1]
  spontaneously beating cells induced by GHMT2m in the presence of inhibitor: enhanced cardiac reprogramming by inducing more spontaneously beating cells
Rats following MI
  TGF-β activity, cardiac fibrosis, ventricular remodeling, systolic dysfunction: significantly decreased TGF-β activity, cardiac fibrosis and ventricular remodeling with attenuation of systolic dysfunction

## Fc1ccc(Cl)cc1-c1nc(Nc2ccncc2)c2nccnc2n1 [SD-208]
MEFs [1]
  spontaneously beating cells induced by GHMT2m in the presence of inhibitor: enhanced cardiac reprogramming by inducing more spontaneously beating cells

## CC(C)NCC(O)c1ccc(O)c(O)c1 (stereo not shown) [Iso, isoproterenol]
iCMs
  frequency of cell contraction and spontaneous calcium transients: significantly increased

## TGF-β1: Recombinant Mouse TGF-beta 1 (R&D Systems 7666-MB-005), pro-fibrotic stimulus
MEFs [2]; GHMT2m-cultures treated with TGF-β1
  expression of other cardiomyocyte markers, including α-actinin, Myh6 and Actc1: significantly down-regulated
MEFs [2]; GHMT-infected cultures treated with TGF-β1 for 4 days
  cardiac gene expression: significantly reduced
MEFs [3]; GHMT2m-fibroblasts treated with TGF-β1
  profibrotic gene Col1a1 expression: enhanced
MEFs [3]; GHMT-infected cultures at day 7, TGF-β1 10 ng/ml, compared to non-treated
  amount of phospho-Smad2, expression of Fn-EDA and Col1a1, formation of αSMA stress fibers: increased
MEFs [1]; GHMT2m-infected MEFs treated with TGF-β1, by one month
  decrease of beating cells: 100 fold
MEFs [1]; GHMT-infected MEFs treated with TGF-β1, by one month
  effect on beating cells: completely abolished
MEFs [4]
  cTnThigh fraction: approximately 19%
MEFs [5]; GHMT2m-cultures treated with TGF-β1, day 7 and day 14
  fraction of cTnT+ cells: did not significantly decrease
MEFs [5]; GHMT-infected MEFs treated with TGF-β1, day 14
  cTnT+ and α-actinin+ populations: significantly reduced

## CN(C)CCOc1cc(-c2cn[nH]c2)ccc1NC(=O)C1COc2ccccc2O1 (stereo not shown) [SR-3677]
MEFs [1]
  spontaneously beating cells induced by GHMT2m in the presence of inhibitor: enhanced cardiac reprogramming and promoted formation of spontaneously beating cells

## c1ccc(-c2[nH]ncc2-c2ccnc3ccccc23)nc1 [LY-364947]
MEFs [1]
  spontaneously beating cells induced by GHMT2m in the presence of inhibitor: enhanced cardiac reprogramming by inducing more spontaneously beating cells

## O=C(NCc1ccccc1)c1csc(Nc2ccncn2)n1 [Thiazovivin]
MEFs [1]
  spontaneously beating cells induced by GHMT2m in the presence of inhibitor: enhanced cardiac reprogramming and promoted formation of spontaneously beating cells

## C[C@@H](N)[C@H]1CC[C@H](C(=O)Nc2ccncc2)CC1 [Y-27632]
MEFs [2]; reprogramming MEFs treated with Y-27632 for 5 days, day 7
  cardiomyocyte-specific gene expression: enhanced
MEFs [3]; [7]
  Snail and Slug expression: did not change
  expression of Fn-EDA and αSMA: decreased
MEFs [3]; reprogramming MEFs
  inhibition of expression of pro-fibrotic markers, comparison of inhibitors: inhibited expression of pro-fibrotic markers less efficiently than A83-01
MEFs [1]; GHMT2m cultures of MEFs, by day 12, without or with Y-27632 (30 μM)
  beating cell population: ~30%
MEFs [1]; GHMT-infected MEFs, Y-27632 30 μM, by 4 weeks
  increase of the number of beating cells: 7 fold
MEFs [1]; MEFs, GHMT2m alone, or GHMT-infected cultures treated with Y-27632 (30 μM) or A83-01 (0.5 μM)
  time by which cells started to beat: ≤ 12 days
[6]
  infarct size and remodeling: decreased infarct size and remodeling
MEFs [5]; infected MEFs treated with Y-27632 (30 μM), day 14
  assembly of myocyte sarcomeres: enhanced
